Measured values as given in patent US20240158393A1, “PYRIDONE COMPOUNDS AND METHODS OF USE” (Exelixis, Inc., priority 2021, published 2024).

Key:
Human KDR = target: T1, Human KDR (Homo sapiens, UniProt P35968); assay: Human KDR kinase assay (33P radiometric / HTRF KinEase); type: biochemical; conditions: protocols of Examples B-1 and/or B-2
T1 construct: Human KDR (residues K790-V1356, 55 nM); purchased Eurofins Pharma Discovery Services UK Limited (KinaseProfiler, B-1) and/or CarnaBio (B-2)
How it was run: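 Radiometric: KDR K790-V1356 (55 nM), MOPS pH 7.0, myelin basic protein, 10 μM [γ-33P]ATP, 40 min at room temperature, filter-bound 33P counted; nine half-log doses, top 1 μM. HTRF: KDR 790-1356, 1 μM biotinylated peptide, ATP at Km (4.0 μM), 40 min, 10 doses. IC50 from logistic fits.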

Human Axl = target: T2, Human Axl (Homo sapiens, UniProt P30530); assay: Human AXL kinase assay (33P radiometric / HTRF KinEase); type: biochemical; conditions: protocols of Examples A-1 and/or A-2
T2 construct: Human AXL (residues 464-885)
T2 sequence (P30530 1-894 Q764R): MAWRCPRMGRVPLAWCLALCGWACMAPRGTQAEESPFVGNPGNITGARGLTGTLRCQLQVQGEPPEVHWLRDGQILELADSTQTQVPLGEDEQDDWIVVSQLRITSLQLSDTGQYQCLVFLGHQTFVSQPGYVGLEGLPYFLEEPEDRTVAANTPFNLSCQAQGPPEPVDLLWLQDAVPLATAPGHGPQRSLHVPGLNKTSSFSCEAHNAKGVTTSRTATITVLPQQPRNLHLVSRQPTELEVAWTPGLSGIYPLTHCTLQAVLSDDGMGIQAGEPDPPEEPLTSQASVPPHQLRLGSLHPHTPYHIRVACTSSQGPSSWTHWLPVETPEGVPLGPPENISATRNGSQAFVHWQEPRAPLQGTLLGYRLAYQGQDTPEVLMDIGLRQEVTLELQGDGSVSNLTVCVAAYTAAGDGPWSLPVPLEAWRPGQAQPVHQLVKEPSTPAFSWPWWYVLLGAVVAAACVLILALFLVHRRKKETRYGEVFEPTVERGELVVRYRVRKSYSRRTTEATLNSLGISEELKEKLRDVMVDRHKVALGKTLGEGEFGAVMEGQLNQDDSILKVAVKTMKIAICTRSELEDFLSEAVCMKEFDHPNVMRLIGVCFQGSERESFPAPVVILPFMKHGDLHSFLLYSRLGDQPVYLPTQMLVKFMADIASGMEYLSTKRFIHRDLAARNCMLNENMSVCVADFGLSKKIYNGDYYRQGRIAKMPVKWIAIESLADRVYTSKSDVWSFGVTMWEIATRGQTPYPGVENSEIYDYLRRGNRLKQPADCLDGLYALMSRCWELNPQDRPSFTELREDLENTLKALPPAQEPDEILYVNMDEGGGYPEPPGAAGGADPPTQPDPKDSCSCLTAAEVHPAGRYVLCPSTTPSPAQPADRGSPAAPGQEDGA

T1 sequence (P35968 790-1356): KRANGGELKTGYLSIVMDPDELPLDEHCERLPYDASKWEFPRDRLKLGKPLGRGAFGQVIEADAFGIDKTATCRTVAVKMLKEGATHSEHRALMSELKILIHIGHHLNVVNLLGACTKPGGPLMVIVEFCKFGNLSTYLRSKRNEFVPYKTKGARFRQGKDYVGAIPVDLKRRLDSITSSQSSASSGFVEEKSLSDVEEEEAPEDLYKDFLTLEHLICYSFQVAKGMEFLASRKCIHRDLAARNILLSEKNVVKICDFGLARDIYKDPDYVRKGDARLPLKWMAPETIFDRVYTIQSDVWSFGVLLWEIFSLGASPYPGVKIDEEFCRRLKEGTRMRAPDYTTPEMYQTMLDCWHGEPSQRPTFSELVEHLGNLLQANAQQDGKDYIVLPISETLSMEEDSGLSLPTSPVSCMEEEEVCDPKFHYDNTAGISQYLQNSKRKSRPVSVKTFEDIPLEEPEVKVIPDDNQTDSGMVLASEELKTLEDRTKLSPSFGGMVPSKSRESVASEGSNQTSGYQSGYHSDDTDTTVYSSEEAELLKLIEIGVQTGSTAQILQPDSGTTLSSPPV

Compound	IC50 (Human KDR) [nM]	IC50 (Human Axl) [nM]
CNC(=O)c1c(C)nc(C)c(C(=O)Nc2ccc(Oc3ccnc4cc(OC)c(OC)nc34)c(F)c2)c1O [Compound 97, 3-N-[4-[(6,7-Dimethoxy-1,5-naphthyridin-4-yl)oxy]-3-fluorophenyl]-4-hydroxy-5-N,2,6-trimethylpyridine-3,5-dicarboxamide]	100 to 300	≤ 100
COc1cc2nccc(Oc3ccc(NC(=O)c4c(C)nc(C)c(C(=O)NC5CC5)c4O)cc3F)c2nc1OC [Compound 98, 5-N-Cyclopropyl-3-N-[4-[(6,7-dimethoxy-1,5-naphthyridin-4-yl)oxy]-3-fluorophenyl]-4-hydroxy-2,6-dimethylpyridine-3,5-dicarboxamide]	≤ 100	≤ 100
COc1cc2nccc(Oc3ccc(NC(=O)c4c5n(c(C)c(C6=CCCC6)c4=O)CCOC5)cc3)c2nc1OC [Compound 99, 7-(Cyclopenten-1-yl)-N-[4-[(6,7-dimethoxy-1,5-naphthyridin-4-yl)oxy]phenyl]-6-methyl-8-oxo-3,4-dihydro-1H-pyrido[2,1-c][1,4]oxazine-9-carboxamide]	> 300	≤ 100
COc1cc2nccc(Oc3ccc(NC(=O)c4c5n(c(C)c(C6=CCCCC6)c4=O)CCOC5)cc3)c2nc1OC [Compound 100, 7-(Cyclohexen-1-yl)-N-[4-[(6,7-dimethoxy-1,5-naphthyridin-4-yl)oxy]phenyl]-6-methyl-8-oxo-3,4-dihydro-1H-pyrido[2,1-c][1,4]oxazine-9-carboxamide]	> 300	≤ 100
COc1cc2nccc(Oc3ccc(NC(=O)c4c5n(cc(C6=CCCCC6)c4=O)CCOC5)cc3)c2nc1OC [Compound G1-5, 7-(Cyclohexen-1-yl)-N-[4-[(6,7-dimethoxy-1,5-naphthyridin-4-yl)oxy]phenyl]-8-oxo-3,4-dihydro-1H-pyrido[2,1-c][1,4]oxazine-9-carboxamide]	> 300	≤ 100
COc1cc2nccc(Oc3ccc(NC(=O)c4c5n(cc(C6=CCOCC6)c4=O)CCOC5)cc3)c2nc1OC [Compound G1-8, 7-(3,6-Dihydro-2H-pyran-4-yl)-N-[4-[(6,7-dimethoxy-1,5-naphthyridin-4-yl)oxy]phenyl]-8-oxo-3,4-dihydro-1H-pyrido[2,1-c][1,4]oxazine-9-carboxamide]	> 300	≤ 100
